Reference: patent US20240207292A1, “BORONIC ACID COMPOUNDS, COMPOSITIONS AND METHODS” (Trustees of Tufts College, priority 2021, published 2024)
Read-outs that look alike come from different tables or passages of the source. Square brackets hold non-standard residues; d marks the D form. Peptide text beside a SMILES is read from it. * marks the point of attachment. X3 = O=C1CN2CCN3CC(=O)O[C]4(C3)CN(CC(=O)*)CCN3CC(=O)O[C](C2)(C3)[Lu]4[O]1; DOTAGA = O=C(O)CN1CCN(CC(=O)O)CCN(C(CCC(=O)*)C(=O)O)CCN(CC(=O)O)CC1; X5 = O=C(O)CN1CCN(CC(=O)O)CCN([C@H](CCC(=O)*)C(=O)O)CCN(CC(=O)O)CC1; boroPro = OB(O)[C@@H]1CCCN1*

Columns and labels:
Assay type in all cases: biochemical
[1] = molecular target: recombinant human prolyl oligopeptidase (PREP) (Homo sapiens (Human), UniProt P48147); assay: In vitro assay prolyl oligopeptidase IC50 (Example 21)
recombinant human prolyl oligopeptidase (PREP), sequence (P48147 whole entry): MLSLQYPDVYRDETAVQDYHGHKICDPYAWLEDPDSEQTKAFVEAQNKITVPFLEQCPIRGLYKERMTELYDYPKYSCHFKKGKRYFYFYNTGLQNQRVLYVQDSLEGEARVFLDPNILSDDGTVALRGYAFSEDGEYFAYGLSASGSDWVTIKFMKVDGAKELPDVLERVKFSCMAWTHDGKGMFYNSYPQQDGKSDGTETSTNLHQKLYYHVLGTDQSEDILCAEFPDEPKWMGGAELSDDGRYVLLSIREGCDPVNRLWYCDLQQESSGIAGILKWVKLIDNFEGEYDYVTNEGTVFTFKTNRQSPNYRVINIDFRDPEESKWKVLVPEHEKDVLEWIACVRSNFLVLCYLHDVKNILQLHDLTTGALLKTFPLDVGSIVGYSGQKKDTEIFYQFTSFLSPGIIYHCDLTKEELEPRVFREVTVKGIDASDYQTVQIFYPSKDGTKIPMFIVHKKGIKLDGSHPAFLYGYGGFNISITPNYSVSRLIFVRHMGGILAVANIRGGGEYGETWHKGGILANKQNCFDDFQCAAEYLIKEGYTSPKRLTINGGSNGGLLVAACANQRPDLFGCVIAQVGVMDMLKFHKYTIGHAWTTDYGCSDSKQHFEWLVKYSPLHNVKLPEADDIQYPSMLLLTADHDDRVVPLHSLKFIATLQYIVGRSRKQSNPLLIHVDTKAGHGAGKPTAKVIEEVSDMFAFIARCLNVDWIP
Procedure: (§1) The purpose of this assay is to determine the IC50 of various inhibitors against recombinant human dipeptidyl peptidase IV (DPPIV), fibroblast activation protein (FAP) or prolyl oligopeptidase (PREP).
(§2) The assays are conducted in the following steps: • 1 Dissolve the compound in DMSO to a final concentration of 100 mM. From this, prepare a 1 mM stock at pH 7.5 in 50 mM Tris, 140 mM NaCl Buffer (FAP)/pH 7.5 in 25 mM Tris, 250 mM NaCl Buffer/[…]. • 2. Serial dilute (1:10) the 1 mM compound stocks prepared previously into the appropriate assay buffer (FAP: 50 mM Tris, 140 mM NaCl, pH 7.5/PREP: 25 mM Tris, 0.25 M NaCl, pH 7.5/DPPIV: 25 mM Tris, pH 8.0) to one row of a 96-well plate. • 3. […] Dilute the enzymes into their appropriate assay buffers. The final enzyme concentrations should be 0.1, 1.2, and 0.6 nM for DPPIV, FAP and PREP respectively. Add 180 μL to each well needed in columns 2-10. Column 1(A,B,C) should be prepared with 200 μl of appropriate assay buffer as control. Column 1(D,E,F,G,H) should be prepared with 20 μl of appropriate assay buffer and 180 ul enzyme as no inhibitor control. • 5. Add 20 μL of the compound of interest from the dilution plate prepared in step 2 to columns 2-10 of the assay plate where appropriate. Each sample should be tested in triplicate. Allow this to incubate for 10 minutes at room temperature, shaking the plate for the first two minutes. • 6. Add 10 μL of 20× substrate prepared in step 3 to each well and allow this to incubate for 15 minutes at room temperature, shaking the plate for the first two minutes. • 7. Read the fluorescence at λex: 380, λem: 460. (DPcore=[dAla|dSer|Gly]-[boroPro|Pro-nitrile], XXaa=alpha-amino acid)

[2] = molecular target: recombinant human fibroblast activation protein (FAP) (Homo sapiens (Human), UniProt Q12884); assay: In vitro assay fibroblast activation protein IC50 (Example 21)
recombinant human fibroblast activation protein (FAP), sequence (Q12884 whole entry): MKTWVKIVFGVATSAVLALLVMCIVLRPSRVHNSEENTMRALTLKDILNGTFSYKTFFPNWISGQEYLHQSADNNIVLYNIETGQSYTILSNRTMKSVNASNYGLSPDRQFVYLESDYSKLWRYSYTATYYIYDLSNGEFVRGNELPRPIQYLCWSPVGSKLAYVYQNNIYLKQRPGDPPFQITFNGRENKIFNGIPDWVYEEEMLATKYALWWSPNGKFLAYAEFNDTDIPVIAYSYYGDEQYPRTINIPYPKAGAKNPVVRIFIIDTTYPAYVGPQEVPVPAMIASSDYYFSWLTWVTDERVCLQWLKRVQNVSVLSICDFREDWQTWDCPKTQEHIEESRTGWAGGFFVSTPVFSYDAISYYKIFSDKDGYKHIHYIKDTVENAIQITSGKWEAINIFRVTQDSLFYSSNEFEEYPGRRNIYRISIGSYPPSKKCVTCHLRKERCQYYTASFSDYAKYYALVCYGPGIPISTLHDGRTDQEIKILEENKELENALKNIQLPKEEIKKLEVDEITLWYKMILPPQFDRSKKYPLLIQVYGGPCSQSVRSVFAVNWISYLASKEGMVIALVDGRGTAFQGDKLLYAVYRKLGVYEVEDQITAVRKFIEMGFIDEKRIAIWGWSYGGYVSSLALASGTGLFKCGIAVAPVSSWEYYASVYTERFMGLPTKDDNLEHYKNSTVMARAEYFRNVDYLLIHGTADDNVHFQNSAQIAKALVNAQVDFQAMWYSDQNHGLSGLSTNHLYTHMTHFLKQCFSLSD
Procedure: as §1, §2

[3] = molecular target: recombinant human dipeptidyl peptidase IV (DPPIV) (Homo sapiens (Human), UniProt P27487); assay: In vitro assay dipeptidyl peptidase IV IC50 (Example 21)
recombinant human dipeptidyl peptidase IV (DPPIV), sequence (P27487 whole entry): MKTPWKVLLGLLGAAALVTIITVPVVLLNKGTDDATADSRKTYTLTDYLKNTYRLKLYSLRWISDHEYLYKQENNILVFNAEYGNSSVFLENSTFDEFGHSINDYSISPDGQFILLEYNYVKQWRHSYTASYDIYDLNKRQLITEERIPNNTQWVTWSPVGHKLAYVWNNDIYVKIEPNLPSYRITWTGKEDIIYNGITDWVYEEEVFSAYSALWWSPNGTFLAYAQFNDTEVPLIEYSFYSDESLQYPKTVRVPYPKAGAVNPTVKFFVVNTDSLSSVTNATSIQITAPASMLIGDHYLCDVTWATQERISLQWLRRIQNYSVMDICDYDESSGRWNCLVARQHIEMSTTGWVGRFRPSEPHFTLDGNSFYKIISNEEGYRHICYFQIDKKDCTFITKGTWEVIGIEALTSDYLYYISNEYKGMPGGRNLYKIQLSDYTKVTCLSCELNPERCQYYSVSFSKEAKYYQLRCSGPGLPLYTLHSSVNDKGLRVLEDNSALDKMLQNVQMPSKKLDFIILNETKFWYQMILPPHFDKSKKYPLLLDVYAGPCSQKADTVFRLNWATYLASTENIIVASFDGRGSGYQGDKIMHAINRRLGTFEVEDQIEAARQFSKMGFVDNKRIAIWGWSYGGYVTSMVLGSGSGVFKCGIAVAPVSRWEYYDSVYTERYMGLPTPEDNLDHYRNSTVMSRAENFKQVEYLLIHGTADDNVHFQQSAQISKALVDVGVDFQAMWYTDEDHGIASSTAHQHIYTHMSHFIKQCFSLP
Procedure: as §1, §2

## C[C@@H](NC(=O)c1ccc(NNC(=O)CCCNC(=O)CN2CCN3CCN4CCN(CC2)CC(=O)[O][Ga]([O]C(=O)C3)[O]C(=O)C4)nc1)C(=O)N1CCC[C@H]1B(O)O [6489 GA]
[1]
  IC50: 3400 nM
[2]
  IC50: 39 nM
[3]
  IC50: > 100000 nM

## CC(C)[C@H](NC(=O)CNC(=O)CNC(=O)CNC(=O)CC[C@H](C(=O)O)N1CCN(CC(=O)O)CCN(CC(=O)O)CCN(CC(=O)O)CC1)C(=O)N[C@H](C)C(=O)N1CCC[C@H]1B(O)O [6808D] (X5-GGGV[dA]-boroPro)
[1]; Z-Gly-Pro-AMC, 0.6 nM enzyme
  IC50: 11000 nM
[2]; Z-Gly-Pro-AMC, 1.2 nM enzyme
  IC50: 11.5 nM

## C[C@@H](NC(=O)c1ccc(NC(=O)CCCCNC(=O)CN2CCN(CC(=O)O)CCN(CC(=O)O)CCN(CC(=O)O)CC2)cc1)C(=O)N1CCC[C@H]1B(O)O [compound 6590]
[1]
  IC50: 129 nM
[2]
  IC50: 1.6 nM

## C[C@@H](NC(=O)c1ccc(NNC(=O)CCCCC[N+]2=C(/C=C/C3=C(Oc4ccc(S(=O)(=O)O)cc4)C(=C/C=C4/N(CCCCS(=O)(=O)O)c5ccc(S(=O)(=O)O)cc5C4(C)C)/CCC3)C(C)(C)c3cc(S(=O)(=O)O)ccc32)cc1)C(=O)N1CCC[C@H]1B(O)O [4613 C]
[1]
  IC50: 610 nM
[2]
  IC50: 1.7 nM

## C[C@@H](NC(=O)CN1CCN2CC(=O)O[C]3(CN4CCN5CC(=O)O[C](C1)(C5)[Gd]3[O]C(=O)C4)C2)C(=O)N1CCC[C@H]1B(O)O (some centres unmarked) [4535GD]
[1]; Z-Gly-Pro-AMC, 0.6 nM enzyme
  IC50: > 10000 nM
[2]; Z-Gly-Pro-AMC, 1.2 nM enzyme
  IC50: 760 nM

## C[C@@H](NC(=O)c1ccc(NNC(=O)CCCCCNC(=O)CN2CCN3CCN4CCN(CC2)CC(=O)[O][Lu]([O]C(=O)C3)[O]C(=O)C4)nc1)C(=O)N1CCC[C@H]1B(O)O [6609LU]
[1]
  IC50: 60 nM
[2]
  IC50: 1 nM

## C[C@@H](NC(=O)c1ccc(NN)nc1)C(=O)N1CCC[C@H]1B(O)O [compound 3860]
[1]
  IC50: 9800 nM
[2]
  IC50: 170 nM
[3]
  IC50: > 100000 nM

## C[C@@H](NC(=O)c1ccc(CNC(=O)CN2CCN3CCN4CCN(CC2)CC(=O)[O][Ga]([O]C(=O)C3)[O]C(=O)C4)nc1)C(=O)N1CCC[C@H]1B(O)O [6556GA]
[1]
  IC50: 248 nM
[2]
  IC50: 32 nM

## C[C@@H](NC(=O)c1ccc(CNC(=O)CCCNC(=O)CN2CCN(CC(=O)O)CCN(CC(=O)O)CCN(CC(=O)O)CC2)cc1)C(=O)N1CCC[C@H]1B(O)O [compound 6591]
[1]
  IC50: 103 nM
[2]
  IC50: 0.36 nM

## C[C@@H](NC(=O)c1ccc(NNC(=O)CNC(=O)CN2CCN3CCN4CCN(CC2)CC(=O)[O][Ga]([O]C(=O)C3)[O]C(=O)C4)cc1)C(=O)N1CCC[C@H]1B(O)O [6487GA]
[1]
  IC50: 1200 nM
[2]
  IC50: 20.8 nM

## C[C@@H](NC(=O)c1ccc(NNC(=O)CCCCCNC(=O)CN2CCN3CCN4CCN(CC2)CC(=O)[O][Lu]([CH2]C(=O)C3)[O]C(=O)C4)nc1)C(=O)N1CCC[C@H]1B(O)O [6958LU]
[1]
  IC50: 155 nM
[2]
  IC50: 1.1 nM

## CC(C)[C@H](NC(=O)CNC(=O)CNC(=O)CN1CCN2CC(=O)O[C]3(CN4CCN5CC(=O)O[C](C1)(C5)[Lu]3[O]C(=O)C4)C2)C(=O)N[C@H](C)C(=O)N1CCC[C@H]1B(O)O (some centres unmarked) [6522LU] (X3-GGV[dA]-boroPro)
[1]; Z-Gly-Pro-AMC, 0.6 nM enzyme
  IC50: 19000 nM
[2]; Z-Gly-Pro-AMC, 1.2 nM enzyme
  IC50: 26 nM
[3]; Gly-Pro-AMC, 0.1 nM enzyme
  IC50: > 100000 nM

## C[C@@H](NC(=O)c1ccc(NNC(=O)CN2CCN3CCN4CCN(CC2)CC(=O)[O][Gd]([O]C(=O)C3)[O]C(=O)C4)nc1)C(=O)N1CCC[C@H]1B(O)O [4536GD]
[1]
  IC50: > 100000 nM
[2]
  IC50: 450 nM
[3]
  IC50: > 100000 nM

## CC(C)[C@H](NC(=O)CNC(=O)CNC(=O)CCC(C(=O)O)N1CCN(CC(=O)O)CCN(CC(=O)O)CCN(CC(=O)O)CC1)C(=O)N[C@H](C)C(=O)N1CCC[C@H]1B(O)O (some centres unmarked) [compound 6794] ({DOTAGA}-GGV[dA]-boroPro)
[1]; Z-Gly-Pro-AMC, 0.6 nM enzyme
  IC50: 17400 nM
[2]; Z-Gly-Pro-AMC, 1.2 nM enzyme
  IC50: 33 nM
